# Earlier results as cited in PMC7870075, “Physicochemical properties and formulation development of a novel compound inhibiting Staphylococcus aureus biofilm formation” (PLoS ONE, 2021).
# Design: method as in PMID 23433668
# Conditions: cited from earlier work
structure (smiles),measurement,value
C=CCn1c(NCC)nc2c(c1=O)C(C)(C)Cc1cc(OC)ccc1-2 [CCG-203592],half-life in mouse liver microsomes (t1/2),48 s
